We go through 12 compounds from patent US12227498B2, “Heterocyclic amine derivative and pharmaceutical composition comprising same” (Daewoong Pharmaceutical Co., Ltd., priority 2018, dated 2025).

One assay concerns the target T1, ITK (Homo sapiens, UniProt Q08881).
T1 construct: purchased Promega Corporation
T1 sequence (Q08881 1-620): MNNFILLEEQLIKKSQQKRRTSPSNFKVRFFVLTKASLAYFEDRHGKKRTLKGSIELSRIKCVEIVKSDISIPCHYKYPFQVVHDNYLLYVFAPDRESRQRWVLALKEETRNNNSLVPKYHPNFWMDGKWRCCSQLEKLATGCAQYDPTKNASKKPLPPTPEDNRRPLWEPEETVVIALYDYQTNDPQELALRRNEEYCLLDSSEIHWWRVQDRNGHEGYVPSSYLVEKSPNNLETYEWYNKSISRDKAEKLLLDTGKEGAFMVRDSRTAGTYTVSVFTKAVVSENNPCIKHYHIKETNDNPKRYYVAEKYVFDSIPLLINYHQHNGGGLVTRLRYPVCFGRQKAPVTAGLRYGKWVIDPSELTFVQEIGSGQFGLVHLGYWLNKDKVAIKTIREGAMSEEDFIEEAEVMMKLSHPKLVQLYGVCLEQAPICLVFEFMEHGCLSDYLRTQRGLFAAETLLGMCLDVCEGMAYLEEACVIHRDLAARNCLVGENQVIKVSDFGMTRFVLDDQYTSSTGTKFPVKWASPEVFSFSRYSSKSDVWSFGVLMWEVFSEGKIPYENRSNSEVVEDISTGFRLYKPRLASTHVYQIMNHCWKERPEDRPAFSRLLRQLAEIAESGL
Put plainly: Inhibitory activity against ITK, ADP-Glo + ITK Kinase enzyme system kit (Promega). It is filed as biochemical. Particulars: ITK enzyme 0.4 ng/μl; 15 min preincubation at room temperature; 1 hour at 30° C.; luminescence; duplicate. As for the experimental part:
(§1) Inhibitory activities against BTK and ITK were measured for the compounds prepared in the above Examples as follows.
The inhibitory activity against ITK was evaluated using ‘ADP-Glo™+ITK Kinase enzyme system’ kit (Promega Corporation). […] To the plate on which reactions were completed, 5 μl of substrate and 5 μl of ATP prepared so as to have a final concentration of […] were added and then allowed to react at 30° C. for 1 hour. All wells of the plate were treated with 25 μl of ADP-Glo™ reagent and then allowed to react at 30° C. for 40 minutes. After that, all wells were treated with 50 μl of kinase detection buffer, and then allowed to react at 30° C. for 30 minutes under light shielding conditions. For the plate on which all reactions were completed, luminescence was measured and the results were calculated. Evaluation was carried out in duplicate, and negative control and positive control were calculated depending on whether or not the enzyme was added without treatment of the compound. The IC50 was calculated based on the calculated values.

The target of a further assay is T2, BTK (Homo sapiens, UniProt Q06187).
T2 construct: purchased Promega Corporation
Put plainly: Inhibitory activity against BTK, ADP-Glo + BTK Kinase enzyme system kit (Promega). It is filed as biochemical. The following applies: BTK enzyme 1 ng/μl; ATP 10 µM; 15 min preincubation at room temperature; 1 hour at 30° C.; luminescence; duplicate. The procedure: as §1
The inhibitory activities against BTK were evaluated using ‘ADP-Glo™+BTK Kinase enzyme system’ kit (Promega Corporation). […] 5 μl of substrate and 5 μl of ATP prepared so as to have a final concentration of 10 µM were added to the plate on which reactions were completed, and then allowed to react at 30° C. for 1 hour. All wells of the plate were treated with 25 μl of ADP-Glo™ reagent and allowed to react at 30° C. for 40 minutes. After that, all wells were treated with 50 μl of kinase detection buffer, and then reacted at 30° C. for 30 minutes under light shielding conditions. For the plate on which all reactions were completed, luminescence was measured and the results were calculated. Evaluation was carried out in duplicate, and negative control and positive control were calculated depending on whether or not the enzyme was added without treatment of the compound. The IC50 was calculated based on the calculated values.
A general note: ADP-Glo turns the ADP formed in a reaction into a luminescent signal.

T2 sequence (Q06187 whole entry): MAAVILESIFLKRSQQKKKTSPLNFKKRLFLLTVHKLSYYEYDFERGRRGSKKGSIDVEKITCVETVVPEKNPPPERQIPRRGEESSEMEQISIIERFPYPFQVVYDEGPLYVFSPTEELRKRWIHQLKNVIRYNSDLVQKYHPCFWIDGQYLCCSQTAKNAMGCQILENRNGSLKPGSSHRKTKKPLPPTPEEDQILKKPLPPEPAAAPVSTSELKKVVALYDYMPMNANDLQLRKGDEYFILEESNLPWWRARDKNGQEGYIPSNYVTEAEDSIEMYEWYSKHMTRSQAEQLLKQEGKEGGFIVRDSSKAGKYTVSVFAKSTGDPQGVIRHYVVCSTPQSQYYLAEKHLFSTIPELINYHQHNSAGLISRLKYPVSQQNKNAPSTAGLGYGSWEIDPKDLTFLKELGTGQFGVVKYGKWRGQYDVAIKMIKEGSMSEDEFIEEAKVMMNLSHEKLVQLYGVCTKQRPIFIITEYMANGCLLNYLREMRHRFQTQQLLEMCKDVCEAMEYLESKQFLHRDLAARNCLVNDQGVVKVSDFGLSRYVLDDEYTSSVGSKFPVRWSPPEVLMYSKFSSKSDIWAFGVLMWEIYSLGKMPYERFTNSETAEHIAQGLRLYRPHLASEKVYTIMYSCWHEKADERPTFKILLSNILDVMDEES

On to `C=CC(=O)N1CCC[C@@H](Nc2nc(CN3CCOCC3)cc(Nc3ncc(C)s3)n2)C1` [Example 25, (R)-1-(3-((4-((5-methylthiazol-2-yl)amino)-6-(morpholinomethyl)pyrimidin-2-yl)amino)piperidin-1-yl) prop-2-en-1-one], for which the IC50 on ITK and at BTK was approximately 1000 nM in each case.

Take `C=CC(=O)N1CCC[C@H](N(C)c2cc(CN3CCOCC3)cc(Nc3ncc(C)s3)n2)C1` [Example 26, (S)-1-(3-(methyl (6-((5-methylthiazol-2-yl)amino)-4-(morpholinomethyl)pyridin-2-yl)amino)piperidin-1-yl) prop-2-en-1-one]: the IC50 (in general, the concentration needed to halve the response being measured) on ITK stood at 17.7 nM; at BTK, 2.2 nM.

Turning to `C=CC(=O)NC1CCN(c2cc(CN3CCOCC3)cc(Nc3ncc(C)s3)n2)CC1` [Example 27, N-(1-(6-((5-methylthiazol-2-yl)amino)-4-(morpholinomethyl)pyridin-2-yl)piperidin-4-yl) acrylamide], the values for the IC50 at ITK and at BTK were 43.8 nM and 85.2 nM, respectively.

Take `C=CC(=O)N1CCC2CCN(c3cc(CN4CCOCC4)cc(Nc4ncc(C)s4)n3)CC21` (stereo not drawn) [Example 28, 1-(6-(6-((5-methylthiazol-2-yl)amino)-4-(morpholinomethyl)pyridin-2-yl)octahydro-1H-pyrrolo[2,3-c]pyridin-1-yl) prop-2-en-1-one]: the IC50 was determined as 31.7 nM on ITK and 8.8 nM at BTK.

Take `CC#CC(=O)N1CCC2CCN(c3cc(CN4CCOCC4)cc(Nc4ncc(C)s4)n3)CC21` (stereo not drawn) [Example 29, 1-(6-(6-((5-methylthiazol-2-yl)amino)-4-(morpholinomethyl)pyridin-2-yl)octahydro-1H-pyrrolo[2,3-c]pyridin-1-yl) but-2-yn-1-one]: the IC50 at ITK was 50.4 nM; on BTK, 18.5 nM.

In the case of `C=CC(=O)N1CC2(CC(Nc3cc(CN4CCOCC4)cc(Nc4ncc(C)s4)n3)C2)C1` [Example 30, 1-(6-((6-((5-methylthiazol-2-yl)amino)-4-(morpholinomethyl)pyridin-2-yl)amino)-2-azaspiro[3.3]heptan-2-yl) prop-2-en-1-one], the IC50 on ITK was found to be 47 nM; at BTK it was 67.1 nM.

For the compound `C=CC(=O)N1CCC[C@H](Nc2nc(CN3CCCCC3)cc(Nc3ncc(C)s3)n2)C1` [Example 31, (S)-1-(3-((4-((5-methylthiazol-2-yl)amino)-6-(piperidin-1-ylmethyl)pyrimidin-2-yl)amino)piperidin-1-yl) prop-2-en-1-one], the IC50 turned out to be 15.6 nM on ITK and 8.8 nM on BTK.

Turning to `C=CC(=O)N1CCC[C@H](Nc2cc(CN3CCN(CC)CC3)cc(Nc3ncc(C)s3)n2)C1` [Example 32], the results for the IC50 at ITK and on BTK were 5.6 nM and 3 nM, respectively.

In the case of `C=CC(=O)N1CCC[C@H](Nc2cc(OC3CCN(C)CC3)cc(Nc3ncc(C)s3)n2)C1` [Example 33, (S)-1-(3-((4-((1-methylpiperidin-4-yl)oxy)-6-((5-methylthiazol-2-yl)amino)pyridin-2-yl)amino)piperidin-1-yl) prop-2-en-1-one], the results for the IC50 on ITK and at BTK were 3.9 nM and 1.8 nM, respectively.

With `C=CC(=O)N1CCC[C@H](Nc2cc(CN3CCN(CCC#N)CC3)cc(Nc3ncc(C)s3)n2)C1` [Example 34, (S)-3-(4-((2-((1-acryloylpiperidin-3-yl)amino)-6-((5-methylthiazol-2-yl)amino)pyridin-4-yl)methyl)piperazin-1-yl) propanenitrile], the IC50 came out at 1.7 nM at ITK and 1.1 nM at BTK.

Turning to `C=CC(=O)N1CCC[C@H](Nc2cc(C)cc(Nc3ncc(C)s3)n2)C1` [Example 35, (S)-1-(3-((4-methyl-6-((5-methylthiazol-2-yl)amino)pyridin-2-yl)amino)piperidin-1-yl) prop-2-en-1-one], the IC50 on ITK is 13.4 nM; at BTK, 2.1 nM.

For `C=CC(=O)N1CCC[C@H](Nc2cc(Cc3cccnc3)cc(Nc3ncc(C)s3)n2)C1` [Example 36, (S)-1-(3-((6-((5-methylthiazol-2-yl)amino)-4-(pyridin-3-ylmethyl)pyridin-2-yl)amino)piperidin-1-yl) prop-2-en-1-one], the IC50 is 1.8 nM at ITK and 3.9 nM at BTK.
